# Source: the supplement of paper PMC8967900
# System: P30-OHKUBO
# Assay: selective drug sensitivity score (sDSS, relative to normal bone marrow) (sDSS (score)); higher = more potent and effective on the cell line relative to normal bone marrow cells
# Settings: 72 h
# 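Note: ALL cell lines in 384-well plates, five doses spanning 10,000-fold, each plate scaled between vehicle and 100 µmol/L benzalkonium chloride controls, sDSS an adapted area-under-curve metric.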
row,SMILES,selective drug sensitivity score
1,NC1(c2ccc(-c3nc4ccn5c(=O)[nH]nc5c4cc3-c3ccccc3)cc2)CCC1 [MK-2206] (top concentration 1000 nM),6.36
2,O=C(Nc1cccc(NC(=O)c2cccc(O)c2O)c1)c1cccc(O)c1O [MST-312] (top concentration 10000 nM),8.1
3,CC(=O)O[C@]1(C(C)=O)CC[C@H]2[C@@H]3C=C(C)C4=CC(=O)CC[C@]4(C)[C@H]3CC[C@@]21C [Megestrol_acetate] (top concentration 10000 nM),4.42
4,CO[C@@H]1[C@H](N(C)C(=O)c2ccccc2)C[C@H]2O[C@]1(C)n1c3ccccc3c3c4c(c5c6ccccc6n2c5c31)C(=O)NC4 [Midostaurin] (top concentration 10000 nM),14.4
5,CCCCCCCCCCCCCCCCOP(=O)([O-])OCC[N+](C)(C)C [Miltefosine] (top concentration 100000 nM),2.26
6,Nc1ccccc1NC(=O)c1ccc(CNc2nccc(-c3cccnc3)n2)cc1 [Mocetinostat] (top concentration 10000 nM),7.54
7,CCNC(=O)C[C@@H]1N=C(c2ccc(Cl)cc2)c2cc(OC)ccc2-n2c(C)nnc21 [Molibresib] (top concentration 10000 nM),6.4
8,Nc1ncnc2c1c(-c1cccc(OCc3ccccc3)c1)cn2[C@H]1C[C@@H](CN2CCC2)C1 [NVP-AEW541] (top concentration 10000 nM),-2.02
9,CN[C@@H](C)C(=O)N[C@H](C(=O)N1CCC[C@H]1c1nc(C(=O)c2ccc(F)cc2)cs1)C1CCCCC1 [NVP-LCL161] (top concentration 25000 nM),-1.12

# System: MN-60
# Assay: as above
# Settings: 72 h
row,SMILES,selective drug sensitivity score
1,Nc1ccccc1NC(=O)c1ccc(CNC(=O)OCc2cccnc2)cc1 [Entinostat] (top concentration 10000 nM),1.68
2,C#Cc1cccc(Nc2ncnc3cc(OCCOC)c(OCCOC)cc23)c1 [Erlotinib] (top concentration 10000 nM),0.96
3,O=C(Nc1nc2cccc(-c3ccc(CN4CCS(=O)(=O)CC4)cc3)n2n1)C1CC1 [Filgotinib] (top concentration 10000 nM),-2.64
4,C[C@H]1C=C2C(=O)O[C@H]3CC[C@@H](C1)[C@@]23O [Galiellalactone] (top concentration 25000 nM),2.46
5,CN(C)C1CCN(C(=O)c2ccc(NC(=O)Nc3ccc(-c4nc(N5CCOCC5)nc(N5CCOCC5)n4)cc3)cc2)CC1 [Gedatolisib] (top concentration 1000 nM),6.26
6,Nc1ccn([C@@H]2O[C@H](CO)[C@@H](O)C2(F)F)c(=O)n1 [Gemcitabine] (top concentration 1000 nM),-0.34
7,COc1cc2c(cc1-c1c(C)noc1C)ncc1[nH]c(=O)n([C@H](C)c3ccccn3)c12 [I-BET151] (top concentration 10000 nM),6.76
8,O=C1CCc2c(Oc3ccc4c(c3)[C@@H]3[C@H](O4)[C@H]3c3nc4cc(C(F)(F)F)ccc4[nH]3)ccnc2N1 [Lifirafenib (BGB-283)] (top concentration 10000 nM),1.48
9,NC(=O)N1CCC(CC(=O)N2CCC([C@H]3c4ncc(Br)cc4CCc4cc(Cl)cc(Br)c43)CC2)CC1 [Lonafarnib] (top concentration 100000 nM),2.24
10,NC1(c2ccc(-c3nc4ccn5c(=O)[nH]nc5c4cc3-c3ccccc3)cc2)CCC1 [MK-2206] (top concentration 1000 nM),-1.64
11,O=C(Nc1cccc(NC(=O)c2cccc(O)c2O)c1)c1cccc(O)c1O [MST-312] (top concentration 10000 nM),9.8
12,CC(=O)O[C@]1(C(C)=O)CC[C@H]2[C@@H]3C=C(C)C4=CC(=O)CC[C@]4(C)[C@H]3CC[C@@]21C [Megestrol_acetate] (top concentration 10000 nM),-0.58
13,CO[C@@H]1[C@H](N(C)C(=O)c2ccccc2)C[C@H]2O[C@]1(C)n1c3ccccc3c3c4c(c5c6ccccc6n2c5c31)C(=O)NC4 [Midostaurin] (top concentration 10000 nM),-1.24
14,CCCCCCCCCCCCCCCCOP(=O)([O-])OCC[N+](C)(C)C [Miltefosine] (top concentration 100000 nM),3.26
15,Nc1ccccc1NC(=O)c1ccc(CNc2nccc(-c3cccnc3)n2)cc1 [Mocetinostat] (top concentration 10000 nM),1.34
16,CCNC(=O)C[C@@H]1N=C(c2ccc(Cl)cc2)c2cc(OC)ccc2-n2c(C)nnc21 [Molibresib] (top concentration 10000 nM),6.3
17,Nc1ncnc2c1c(-c1cccc(OCc3ccccc3)c1)cn2[C@H]1C[C@@H](CN2CCC2)C1 [NVP-AEW541] (top concentration 10000 nM),-3.22
18,CN[C@@H](C)C(=O)N[C@H](C(=O)N1CCC[C@H]1c1nc(C(=O)c2ccc(F)cc2)cs1)C1CCCCC1 [NVP-LCL161] (top concentration 25000 nM),-5.72

# System: COG-LL-355h
# Assay: as above
# Settings: 72 h
row,SMILES,selective drug sensitivity score
1,Nc1ccccc1NC(=O)c1ccc(CNC(=O)OCc2cccnc2)cc1 [Entinostat] (top concentration 10000 nM),1.98
2,C#Cc1cccc(Nc2ncnc3cc(OCCOC)c(OCCOC)cc23)c1 [Erlotinib] (top concentration 10000 nM),3.46
3,O=C(Nc1nc2cccc(-c3ccc(CN4CCS(=O)(=O)CC4)cc3)n2n1)C1CC1 [Filgotinib] (top concentration 10000 nM),0.96
4,C[C@H]1C=C2C(=O)O[C@H]3CC[C@@H](C1)[C@@]23O [Galiellalactone] (top concentration 25000 nM),3.66
5,CN(C)C1CCN(C(=O)c2ccc(NC(=O)Nc3ccc(-c4nc(N5CCOCC5)nc(N5CCOCC5)n4)cc3)cc2)CC1 [Gedatolisib] (top concentration 1000 nM),4.16
6,Nc1ccn([C@@H]2O[C@H](CO)[C@@H](O)C2(F)F)c(=O)n1 [Gemcitabine] (top concentration 1000 nM),7.16
7,COc1cc2c(cc1-c1c(C)noc1C)ncc1[nH]c(=O)n([C@H](C)c3ccccn3)c12 [I-BET151] (top concentration 10000 nM),1.86
8,O=C1CCc2c(Oc3ccc4c(c3)[C@@H]3[C@H](O4)[C@H]3c3nc4cc(C(F)(F)F)ccc4[nH]3)ccnc2N1 [Lifirafenib (BGB-283)] (top concentration 10000 nM),4.78
9,NC(=O)N1CCC(CC(=O)N2CCC([C@H]3c4ncc(Br)cc4CCc4cc(Cl)cc(Br)c43)CC2)CC1 [Lonafarnib] (top concentration 100000 nM),9.34
10,NC1(c2ccc(-c3nc4ccn5c(=O)[nH]nc5c4cc3-c3ccccc3)cc2)CCC1 [MK-2206] (top concentration 1000 nM),5.06
11,O=C(Nc1cccc(NC(=O)c2cccc(O)c2O)c1)c1cccc(O)c1O [MST-312] (top concentration 10000 nM),3.2
12,CC(=O)O[C@]1(C(C)=O)CC[C@H]2[C@@H]3C=C(C)C4=CC(=O)CC[C@]4(C)[C@H]3CC[C@@]21C [Megestrol_acetate] (top concentration 10000 nM),0.52
13,CO[C@@H]1[C@H](N(C)C(=O)c2ccccc2)C[C@H]2O[C@]1(C)n1c3ccccc3c3c4c(c5c6ccccc6n2c5c31)C(=O)NC4 [Midostaurin] (top concentration 10000 nM),4.66
14,CCCCCCCCCCCCCCCCOP(=O)([O-])OCC[N+](C)(C)C [Miltefosine] (top concentration 100000 nM),1.36
15,Nc1ccccc1NC(=O)c1ccc(CNc2nccc(-c3cccnc3)n2)cc1 [Mocetinostat] (top concentration 10000 nM),4.24
16,CCNC(=O)C[C@@H]1N=C(c2ccc(Cl)cc2)c2cc(OC)ccc2-n2c(C)nnc21 [Molibresib] (top concentration 10000 nM),1.7
17,Nc1ncnc2c1c(-c1cccc(OCc3ccccc3)c1)cn2[C@H]1C[C@@H](CN2CCC2)C1 [NVP-AEW541] (top concentration 10000 nM),5.38
18,CN[C@@H](C)C(=O)N[C@H](C(=O)N1CCC[C@H]1c1nc(C(=O)c2ccc(F)cc2)cs1)C1CCCCC1 [NVP-LCL161] (top concentration 25000 nM),12.2
